According to US20250064990A1, “METHODS OF SCREENING FOR VMAT2 INHIBITORS” (Neurocrine Biosciences, Inc., priority 2021, published 2025):

Target: VMAT2 (Homo sapiens, UniProt Q05940)
Experiment: VMAT2 target occupancy of single oral doses of NBI-750142 in healthy adult male subjects, [^18F]AV-133 PET
Format: in vivo
Set-up: from tissue; host or cells: brain (caudate, putamen, midbrain) of living healthy adult male subjects
Details: for NBI-750142 T1 Occ / [^18F]AV-133 BPND T1: T1 ([…] post dose); for NBI-750142 T2 Occ / [^18F]AV-133 BPND T2: T2 (18 h post dose)
Procedure: This study was conducted to evaluate the brain penetration and target engagement of VMAT2 after single oral doses of NBI-750142 in healthy subjects. This PET study assessed the engagement of NBI-750142 with VMAT2 in vivo at two time-points after dosing. A sequential-cohort design allowed for the safety, target-occupancy, and available pharmacokinetic (PK) data from each prior cohort to be evaluated before selection of the dose level for the next cohort. A range of NBI-750142 doses (max. 200 mg) were studied to explore the relationship between NBI-750142 plasma concentrations and engagement of VMAT2 in selected brain regions.
This was a Phase 1 single-center, open-label, single-dose, target occupancy study of NBI-750142 in up to 12 healthy male subjects using [^18F]AV-133 PET imaging. […] A total of 12 subjects completed the study. Subjects enrolled in the study were required to report to the clinical research site for 4 separate occasions, detailed below.
Two subjects were initially enrolled in each dose cohort. Each subject received one brain structural magnetic resonance imaging (MRI) scan during screening and up to 3 [^18F]AV-133 PET scans (1 baseline and up to 2 follow-up scans after receiving a single dose of NBI-750142). Subjects enrolled in the first cohort received a single dose of 100 mg of NBI-750142 orally on Day 1. PET scans occurred on Day 1 at approximately 1.5 hours post NBI-750142 dose and on Day 2 at approximately 18 hours post NBI-750142 dose. Subjects were then discharged from the study center after all Day 3 procedures and assessments were completed.
Subjects were administered a single dose of [^18F]AV-133 intravenously over 3 minutes using an infusion pump (approximately 3.33 mL per minute) through a venous catheter followed by a 10 mL saline flush. Dynamic PET imaging of the brain was acquired over 120 min following radiotracer injection on a Siemens Biograph 6 PET/CT camera according to the following protocol: • CT scan of the head • [^18F]AV-133 injection (T=0 min) • Emission scan: 6×30 sec, 4×1 min, 4×2 min, 21×5 min (0-120 min)
Reconstructed PET imaging data volumes were transferred to the image processing PMOD software package (PMOD Technologies, Zurich, Switzerland) where the images were motion and decay corrected, realigned onto the subject MRI and subsequently normalized into the standard MNI (Montreal Neurological Institute) space where volumes of interest (VOIs) were defined from a template (see e.g., Hammers et al, Adult brain maximum probability map (“Hammersmith atlas”; n30r83) in MNI space. 2008). The subject MRI was segmented into grey matter, white matter, and CSF maps. Average activity concentration (kBq/cc) within each VOI, constrained to grey matter voxels for cortical regions, were determined and time activity curves (TACs) were generated. TACs were extracted from the following VOIs: caudate and putamen (striatum), midbrain, cerebellar and occipital cortices. TACs and were expressed in standard uptake value (SUV) units (g/mL) by normalizing with the weight of the subject and the injected dose. The occipital cortex was used as a reference region to normalize activity in target regions to generate SUVr images. For visualization, standard uptake value ratio (SUVr) images were computed between 60-120 min. Non-displaceable binding potential (BPND), the primary outcome measure, was estimated with noninvasive Logan graphical analysis (NI-LGA, t*=20 min) in caudate, putamen and midbrain using the occipital cortex as the reference region. Percent measured occupancy (OM) of NBI-750142 (drug) by region was computed according to the Equation 3-1 at each of the post-dose timepoints, T1 (1.5 h post dose) and T2 (18 h post dose).
Post-hoc exploratory analysis applied an Upregulation model (Equation 3-3), in order to account for the apparent ‘negative occupancy’ values observed at T2 (BPND values at T2 were unexpectedly higher than corresponding BPND values at baseline). […]

[1] = Cohort 1, 100 mg, Subject 1, Caudate
[2] = Cohort 1, 100 mg, Subject 1, Midbrain
[3] = Cohort 1, 100 mg, Subject 1, Putamen
[4] = Cohort 1, 100 mg, Subject 2, Caudate
[5] = Cohort 1, 100 mg, Subject 2, Midbrain
[6] = Cohort 1, 100 mg, Subject 2, Putamen
[7] = Cohort 2, 200 mg, Subject 1, Caudate
[8] = Cohort 2, 200 mg, Subject 1, Midbrain
[9] = Cohort 2, 200 mg, Subject 1, Putamen
[10] = Cohort 2, 200 mg, Subject 2, Caudate
[11] = Cohort 2, 200 mg, Subject 2, Midbrain
[12] = Cohort 2, 200 mg, Subject 2, Putamen
[13] = Cohort 3, 60 mg, Subject 1, Caudate
[14] = Cohort 3, 60 mg, Subject 1, Midbrain
[15] = Cohort 3, 60 mg, Subject 1, Putamen
[16] = Cohort 3, 60 mg, Subject 2, Caudate
[17] = Cohort 3, 60 mg, Subject 2, Midbrain
[18] = Cohort 3, 60 mg, Subject 2, Putamen
[19] = Cohort 4, 60 mg, Subject 1, Caudate

VMAT2, sequence (Q05940 whole entry): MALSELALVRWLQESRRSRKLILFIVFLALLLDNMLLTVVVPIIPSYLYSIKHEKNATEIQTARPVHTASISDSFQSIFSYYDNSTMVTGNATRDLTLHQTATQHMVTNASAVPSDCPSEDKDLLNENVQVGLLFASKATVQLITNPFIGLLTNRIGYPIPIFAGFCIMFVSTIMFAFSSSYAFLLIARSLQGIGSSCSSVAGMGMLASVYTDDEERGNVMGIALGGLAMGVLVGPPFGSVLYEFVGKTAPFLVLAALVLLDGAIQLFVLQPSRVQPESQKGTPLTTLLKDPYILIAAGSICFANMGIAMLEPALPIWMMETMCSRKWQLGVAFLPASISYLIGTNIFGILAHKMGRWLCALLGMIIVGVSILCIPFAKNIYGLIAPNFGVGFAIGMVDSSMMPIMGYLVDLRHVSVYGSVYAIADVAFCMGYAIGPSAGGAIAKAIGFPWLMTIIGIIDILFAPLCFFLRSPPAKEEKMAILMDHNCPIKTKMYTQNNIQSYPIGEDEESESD

SMILES: COc1cc2c(cc1OC)[C@H]1CN(C)[C@H](CC(C)(C)C)CN1CC2 [NBI-750142]
- [^18F]AV-133 striatal uptake at T1 vs baseline (10 mg, cohorts 5A and 5B): did not show reduction in uptake
- [^18F]AV-133 striatal uptake at T1 vs baseline (60 mg, cohorts 3 and 4): showed variability between subjects
- [^18F]AV-133 striatal uptake at T1 vs baseline (100 mg and 200 mg doses, both subjects): markedly reduced uptake
- NBI-750142 T1 Occ [1]: 72%
- [^18F]AV-133 BPND T1 [1]: 0.34
- NBI-750142 T2 Occ [1]: 3%
- [^18F]AV-133 BPND T2 [1]: 1.15
- NBI-750142 T1 Occ [2]: 59%
- [^18F]AV-133 BPND T1 [2]: 0.15
- NBI-750142 T2 Occ [2]: 5%
- [^18F]AV-133 BPND T2 [2]: 0.34
- NBI-750142 T1 Occ [3]: 54%
- [^18F]AV-133 BPND T1 [3]: 0.95
- NBI-750142 T2 Occ [3]: −2%
- [^18F]AV-133 BPND T2 [3]: 2.11
- NBI-750142 T1 Occ [4]: 80%
- [^18F]AV-133 BPND T1 [4]: 0.38
- NBI-750142 T2 Occ [4]: 15%
- [^18F]AV-133 BPND T2 [4]: 1.60
- NBI-750142 T1 Occ [5]: 60%
- [^18F]AV-133 BPND T1 [5]: 0.20
- NBI-750142 T2 Occ [5]: 30%
- [^18F]AV-133 BPND T2 [5]: 0.36
- NBI-750142 T1 Occ [6]: 73%
- [^18F]AV-133 BPND T1 [6]: 0.66
- NBI-750142 T2 Occ [6]: 13%
- [^18F]AV-133 BPND T2 [6]: 2.09
- Occupancy at T2 in striatum (Cohort 1 at 100 mg, subject 1, 18 h post dose): 1%
- Occupancy at T2 in striatum (Cohort 1 at 100 mg, subject 2, 18 h post dose): 14%
- NBI-750142 T1 Occ [7]: 75%
- [^18F]AV-133 BPND T1 [7]: 0.40
- NBI-750142 T2 Occ [7]: −30%
- [^18F]AV-133 BPND T2 [7]: 2.06
- NBI-750142 T1 Occ [8]: 63%
- [^18F]AV-133 BPND T1 [8]: 0.14
- NBI-750142 T2 Occ [8]: −33%
- [^18F]AV-133 BPND T2 [8]: 0.49
- NBI-750142 T1 Occ [9]: 69%
- [^18F]AV-133 BPND T1 [9]: 0.74
- NBI-750142 T2 Occ [9]: −26%
- [^18F]AV-133 BPND T2 [9]: 3.00
- NBI-750142 T1 Occ [10]: 72%
- [^18F]AV-133 BPND T1 [10]: 0.51
- NBI-750142 T2 Occ [10]: −7%
- [^18F]AV-133 BPND T2 [10]: 1.91
- NBI-750142 T1 Occ [11]: 60%
- [^18F]AV-133 BPND T1 [11]: 0.23
- NBI-750142 T2 Occ [11]: 7%
- [^18F]AV-133 BPND T2 [11]: 0.53
- NBI-750142 T1 Occ [12]: 67%
- [^18F]AV-133 BPND T1 [12]: 0.88
- NBI-750142 T2 Occ [12]: −5%
- [^18F]AV-133 BPND T2 [12]: 2.81
- Occupancy at T2 in striatum (Cohort 2 at 200 mg, subject 1, 18 h post dose): −28%
- Occupancy at T2 in striatum (Cohort 2 at 200 mg, subject 2, 18 h post dose): −6%
- NBI-750142 T1 Occ [13]: 37%
- [^18F]AV-133 BPND T1 [13]: 1.04
- NBI-750142 T2 Occ [13]: −15%
- [^18F]AV-133 BPND T2 [13]: 1.93
- NBI-750142 T1 Occ [14]: 47%
- [^18F]AV-133 BPND T1 [14]: 0.20
- NBI-750142 T2 Occ [14]: −5%
- [^18F]AV-133 BPND T2 [14]: 0.39
- NBI-750142 T1 Occ [15]: 34%
- [^18F]AV-133 BPND T1 [15]: 1.31
- NBI-750142 T2 Occ [15]: −12%
- [^18F]AV-133 BPND T2 [15]: 2.22
- NBI-750142 T1 Occ [16]: 6%
- [^18F]AV-133 BPND T1 [16]: 1.62
- NBI-750142 T2 Occ [16]: −20%
- [^18F]AV-133 BPND T2 [16]: 2.07
- NBI-750142 T1 Occ [17]: 16%
- [^18F]AV-133 BPND T1 [17]: 0.44
- NBI-750142 T2 Occ [17]: −22%
- [^18F]AV-133 BPND T2 [17]: 0.64
- NBI-750142 T1 Occ [18]: 3%
- [^18F]AV-133 BPND T1 [18]: 2.14
- NBI-750142 T2 Occ [18]: −22%
- [^18F]AV-133 BPND T2 [18]: 2.70
- Occupancy at T2 in striatum (Cohort 3 at 60 mg, subject 1, 18 h post dose): −14%
- Occupancy at T2 in striatum (Cohort 3 at 60 mg, subject 2, 18 h post dose): −21%
- NBI-750142 T1 Occ [19]: 50%
- [^18F]AV-133 BPND T1 [19]: 0.78
- NBI-750142 T2 Occ [19]: −8%
